# Source: article PMC7772550 (Heliyon, 2020)
# Test system: NO production
# Test: nitric oxide
# Format: cell-based
# Conditions: read-out: NO production inhibition IC50
compound,measurement,value
COc1ccc2c(c1)c(CC(=O)O)c(C)n2C(=O)c1ccc(Cl)cc1 [Indomethacin],IC50,32.2 µM
